Test results reported in a compilation of properties of binary mixtures (doi:10.1007/s10765-020-02720-w).

Assay: xn = mol fraction of the nth substance listed
Details: 100 kPa

viscosity (293.2 K, x2 = 0.91) [mPa·s]	viscosity (293.2 K, x2 = 0.972) [mPa·s]	viscosity (308.19 K, x2 = 0.91) [mPa·s]	viscosity (308.19 K, x2 = 0.972) [mPa·s]	viscosity (338.16 K, x2 = 0.91) [mPa·s]	viscosity (368.13 K, x2 = 0.91) [mPa·s]	viscosity (368.13 K, x2 = 0.972) [mPa·s]	viscosity (293.2 K, x1 = 1) [mPa·s]	viscosity (308.19 K, x1 = 1) [mPa·s]	viscosity (338.16 K, x1 = 1) [mPa·s]	viscosity (368.13 K, x1 = 1) [mPa·s]	SMILES
430	370	171	153	46.2	17.6	16.38	–	–	–	–	C[n+]1ccn(CCC(F)(F)C(F)(F)F)c1.F[P-](F)(F)(F)(F)F + CCCC[n+]1ccn(C)c1.F[P-](F)(F)(F)(F)F
–	–	–	–	–	–	–	343	144	39.5	16.34	CCCC[n+]1ccn(C)c1.F[P-](F)(F)(F)(F)F + C[n+]1ccn(CCC(F)(F)C(F)(F)F)c1.F[P-](F)(F)(F)(F)F
